Converted amounts (≈) assume the structure as drawn. Like-named read-outs stand apart in the source and are kept apart here.
Tests used:
HINF 30063 = test: MIC by agar dilution against HINF 30063; assay type: cell-based, H. influenzae; conditions: Haemophilus influenzae, read-out: HINF 30063 MIC (Minimum Inhibitory Concentration)
From the text: (§1) Compounds of this invention have useful activity against a variety of organisms. The in vitro activity of compounds of this invention can be assessed by standard testing procedures such as the determination of minimum inhibitory concentration (MIC) by agar dilution as described in “Approved Standard. Methods for Dilution Antimicrobial Susceptibility Tests for Bacteria That Grow Aerobically”, 3rd. ed., published 1993 by the National Committee for Clinical Laboratory Standards, Villanova, Pa., USA.

SPNE 9912 = test: MIC by agar dilution against SPNE 9912; assay type: cell-based; conditions: Streptococcus pneumoniae, read-out: SPNE 9912 MIC (Minimum Inhibitory Concentration)
From the text: as §1

[1] = test system: Staphylococcus aureus UC9213 (SAUR 9213); test: MIC by agar dilution against Staphylococcus aureus UC9213; assay type: cell-based; conditions: read-out: SAUR 9213 MIC (Minimum Inhibitory Concentration)
From the text: as §1

Row | Structure (SMILES) | MIC (HINF 30063; HINF 30063, agar dilution) [µg/mL] | MIC (SPNE 9912) [µg/mL] | MIC [1] [µg/mL] | MIC (HINF 30063) [µg/mL]
1 | CCC(=O)NC[C@H]1CN(c2ccc(N3C=CC(=O)CC3)cc2)C(=O)O1 [Example 12, N-{2-oxo-3-[4-(4-oxo-3,4-dihydro-2H-pyridin-1-yl)-phenyl]-oxazolidin-5-ylmethyl}-propionamide] | 4 (≈ 11.6 µM) | 0.5 (≈ 1.46 µM) | 4 (≈ 11.6 µM) | 
2 | O=C1C=CN(c2c(F)cc(N3C[C@H](CNC(=O)C(Cl)Cl)OC3=O)cc2F)CC1 [Example 15, 2,2-dichloro-N-{3-[3,5-difluoro-4-(4-oxo-3,4-dihydro-2H-pyridin-1-yl)-phenyl]-2-oxo-oxazolidin-5-ylmethyl}-acetamide] | 4 (≈ 9.21 µM) | 0.25 (≈ 0.576 µM) | 2 (≈ 4.61 µM) | 
3 | O=C1C=CN(c2ccc(N3C[C@H](CNC(=O)C(Cl)Cl)OC3=O)cc2)CC1 [Example 8, 2,2-dichloro-N-{2-oxo-3-[4-(4-oxo-3,4-dihydro-2H-pyridin-1-yl)-phenyl]-oxazolidin-5-ylmethyl}-acetamide] | 2 (≈ 5.02 µM) | 0.25 (≈ 0.628 µM) | 2 (≈ 5.02 µM) | 
4 | O=C1C=CN(c2ccc(N3C[C@H](CNC(=S)C(F)F)OC3=O)cc2F)CC1 [Example 6, 2,2-difluoro-N-{3-[3-fluoro-4-(4-oxo-3,4-dihydro-2H-pyridin-1-yl)-phenyl]-2-oxo-oxazolidin-5-ylmethyl}-thioacetamide] | 4 (≈ 10 µM) | 0.125 (≈ 0.313 µM) | 1 (≈ 2.5 µM) | 
5 | O=C1C=CN(c2ccc(N3C[C@H](CNC(=O)C(Cl)Cl)OC3=O)cc2F)CC1 [Example 5, 2,2-dichloro-N-{3-[3-fluoro-4-(4-oxo-3,4-dihydro-2H-pyridin-1-yl)-phenyl]-2-oxo-oxazolidin-5-ylmethyl}-acetamide] | 1 (≈ 2.4 µM) | 0.25 (≈ 0.601 µM) | 1 (≈ 2.4 µM) | 
6 | O=C1C=CN(c2ccc(N3C[C@H](Cn4ccnn4)OC3=O)cc2F)CC1 [Example 16, 1-{2-fluoro-4-[(5R)-2-oxo-5-(1H-1,2,3-triazol-1-ylmethyl)-1,3-oxazolidin-3-yl]phenyl}-2,3-dihydropyridin-4(1H)-one] | 8 (≈ 22.4 µM) | 0.25 (≈ 0.7 µM) | 1 (≈ 2.8 µM) | 
7 | O=C1C=CN(c2c(F)cc(N3C[C@H](CNC(=O)C(F)F)OC3=O)cc2F)CC1 [Example 13, N-{3-[3,5-difluoro-4-(4-oxo-3,4-dihydro-2H-pyridin-1-yl)-phenyl]-2-oxo-oxazolidin-5-ylmethyl}-2,2-difluoro-acetamide] | 8 (≈ 19.9 µM) | 0.25 (≈ 0.623 µM) | 2 (≈ 4.98 µM) | 
8 | O=C1C=CN(c2ccc(N3C[C@H](Cn4ccnn4)OC3=O)cc2)CC1 [Example 17, 1-{4-[(5R)-2-oxo-5-(1H-1,2,3-triazol-1-ylmethyl)-1,3-oxazolidin-3-yl]phenyl}-2,3-dihydropyridin-4(1H)-one] | 8 (≈ 23.6 µM) | 1 (≈ 2.95 µM) | 1 (≈ 2.95 µM) | 
9 | O=C1C=CN(c2ccc(N3C[C@H](CNC(=S)C(F)F)OC3=O)cc2)CC1 [Example 10, 2,2-difluoro-N-{2-oxo-3-[4-(4-oxo-3,4-dihydro-2H-pyridin-1-yl)-phenyl]-oxazolidin-5-ylmethyl}-thioacetamide] | 4 (≈ 10.5 µM) | 0.25 (≈ 0.655 µM) | 1 (≈ 2.62 µM) | 
10 | CC(=O)NC[C@H]1CN(c2cc(F)c(N3C=CC(=O)CC3)c(F)c2)C(=O)O1 [Example 2, N-{3-[3,5-diluoro-4-(4-oxo-3,4-dihydro-2H-pyridin-1-yl)-phenyl]-2-oxo-oxazolidin-5-ylmethyl}-acetamide] | 8 (≈ 21.9 µM) | 0.5 (≈ 1.37 µM) | 1 (≈ 2.74 µM) | 
11 | O=C1C=CN(c2ccc(N3C[C@H](CNC(=O)C(F)F)OC3=O)cc2)CC1 [Example 11, 2,2-difluoro-N-{2-oxo-3-[4-(4-oxo-3,4-dihydro-2H-pyridin-1-yl)-phenyl]-oxazolidin-5-ylmethyl}-acetamide] | 4 (≈ 10.9 µM) | 0.5 (≈ 1.37 µM) | 2 (≈ 5.47 µM) | 
12 | O=C1C=CN(c2ccc(N3C[C@H](CNC(=O)C(F)F)OC3=O)cc2F)CC1 [Example 3, N-{3-[3-fluoro-4-(4-oxo-3,4-dihydro-2H-pyridin-1-yl)-phenyl]-2-oxo-oxazolidin-5-ylmethyl}-difluoroacetamide] |  | 0.25 (≈ 0.652 µM) | 1 (≈ 2.61 µM) | 2 (≈ 5.22 µM)
13 | CC(=O)NC[C@H]1CN(c2ccc(N3C=CC(=O)CC3)c(F)c2)C(=O)O1 [Example 1, N-{3-[3-fluoro-4-(4-oxo-3,4-dihydro-2H-pyridin-1-yl)-phenyl]-2-oxo-oxazolidin-5-ylmethyl}-acetamide] | 4 (≈ 11.5 µM) | 0.25 (≈ 0.72 µM) | 2 (≈ 5.76 µM) | 
14 | CC(=O)NC[C@H]1CN(c2ccc(N3C=CC(=O)CC3)cc2)C(=O)O1 [Example 9, N-{2-oxo-3-[4-(4-oxo-3,4-dihydro-2H-pyridin-1-yl)-phenyl]-oxazolidin-5-ylmethyl}-acetamide] | 4 (≈ 12.1 µM) | 0.5 (≈ 1.52 µM) | 2 (≈ 6.07 µM) | 
15 | CCC(=O)NC[C@H]1CN(c2ccc(N3C=CC(=O)CC3)c(F)c2)C(=O)O1 [Example 4, N-{3-[3-fluoro-4-(4-oxo-3,4-dihydro-2H-pyridin-1-yl)-phenyl]-2-oxo-oxazolidin-5-ylmethyl}-propionamide] | 2 (≈ 5.53 µM) | 0.5 (≈ 1.38 µM) | 1 (≈ 2.77 µM) | 
16 | O=C1C=CN(c2c(F)cc(N3C[C@H](CNC(=S)C(F)F)OC3=O)cc2F)CC1 [Example 14, N-{3-[3,5-difluoro-4-(4-oxo-3,4-dihydro-2H-pyridin-1-yl)-phenyl]-2-oxo-oxazolidin-5-ylmethyl}-2,2-difluoro-thioacetamide] | 8 (≈ 19.2 µM) | 0.25 (≈ 0.599 µM) | 0.5 (≈ 1.2 µM) | 
17 | COC(=O)NC[C@H]1CN(c2ccc(N3C=CC(=O)CC3)c(F)c2)C(=O)O1 [Example 7, {3-[3-fluoro-4-(4-oxo-3,4-dihydro-2H-pyridin-1-yl)-phenyl]-2-oxo-oxazolidin-5-ylmethyl}-carbamic Acid Methyl Ester] | 8 (≈ 22 µM) | 0.5 (≈ 1.38 µM) | 2 (≈ 5.5 µM) | 

From patent US7105547B2, “Antimicrobial 1-aryl dihydropyridone compounds” (Pharmacia and Upjohn Company, priority 2002, dated 2006)
